Laboratory results: US20260166182A1, “CYANINE-BASED FLUOROPHORES” (The General Hospital Corporation, priority 2022, published 2026)

Legend:
[1] = test system: pancreatic ductal adenocarcinoma (PDAC; Pan02 cell); test: NIR-II fluorescence imaging of subcutaneous PDAC tumor-bearing C57BL/6 mice; type: in vivo, mouse
Description: General NIR-II fluorescence imaging: A 640×512-pixel InGaAs camera (Ninox640, Raptor Photonics) and macro zoom lens (0-10×; Navitar Zoom 7000 with SWIR coating) along with 900, 1070, 1100, and 1200 nm long-pass (LP) filters from either Thorlab or Edmund optics were used to collect the NIR-II signal. InGaAs camera played a role as an open-air imaging system along with the support of the FLARE system. An 808 nm fiber-coupled diode laser ([…] at the sample) was used as an excitation source. Data acquisition was done using in-house developed software. The mice fur on the region of interest was shaved prior to imaging using a clipper and removed completely using a depilatory cream. 100 μL of SH1 in 5 w/v % BSA saline ([…]) was injected through the tail vein. Mice were imaged with intact skin using InGaAs camera. At least 3 mice were analyzed for each sample. […]
Statistical analysis: The fluorescence and background intensities of a region of interest over each tissue were quantified using customized imaging software and ImageJ v1.48 (National Institutes of Health, Bethesda, MD). The signal-to-background ratio (SBR) was calculated as SBR=fluorescence/background, where background was the fluorescence intensity of muscle. […] The differences among groups were determined using one-way ANOVA analysis to assess the statistical differences among more than two groups. […]

[2] = Optical study in EtOH, DMSO, HEPES and PBS; type: physicochemical
Description: (§1) Optical Study, Photostability, Physicochemical Properties, and DFT Calculation: 1 mM stock solution in DMSO of the synthesized fluorophores was prepared before starting any spectral measurement. Optical properties for the synthesized fluorophores were measured in four different solvents (EtOH, DMSO, HEPES, and PBS). Absorbance spectra were measured in a Varian Cary 50 absorbance spectrophotometer (190-1100 nm). Fluorescence emission and photostability were measured and emission spectra were recorded on a Shimadzu RF-5301PC spectrofluorometer. Physicochemical properties (Log D, molecular mass, TPSA, H bond D/A, polarizability, molecular volume, and rotatable bonds) were predicted by ChemAxon (JChem plugin). Theoretical calculations of frontier molecular orbitals (FMOs) for the optimized structures of selected fluorophores were calculated based on DFT calculations at the B3LYP/6-311G(d,p) level.
In vivo success of a contrast agent can depend on the absorption and emission profiles, molar extinction coefficient, quantum yield, molecular brightness, physicochemical properties, and photochemical stability. Different types of polymethine bridges can have an impact on the structural geometry of the fluorophores and the absorption and emission profiles. Optical properties were measured in polar protic EtOH, polar aprotic DMSO, and two buffer solutions, phosphate-buffered saline (PBS, PH ˜7.4) and 4-(2-hydroxyethyl)-1-piperazine-ethanesulfonic acid (HEPES, PH ˜7.4). Organic solvents such as ethanol (EtOH) and dimethyl sulfoxide (DMSO) are often used in spectroscopic experiments to observe the absorption and emission maximum, whereas buffer solvents PBS and HEPES were used to mimic the biological environment, as these synthesized fluorophores are intended to be used in bioimaging. The absorbance profiles of these fluorophores were recorded at various concentrations (0.8, 1.6, 2.4, 3.2, 4.0 μM) and the absorbance values obtained were plotted against each of the concentrations. […] Fluorophores 18-21 refer to the labels in Example 4 and FIG. 7D.
The molar extinction coefficient is an intrinsic property of any fluorophore and can be important for high image resolution. […] These properties vary with the structure change and are difficult to predict beforehand. The optical properties of the synthesized fluorophores were measured in various media. All measurements were performed in 2 different organic solvents (EtOH and DMSO) and 2 different buffer (HEPES and PBS), and ICG was used as a reference (ΦICG=0.043).

[3] = Photostability under xenon lamp irradiation; type: physicochemical; settings: 2 h
Description: as §1
In consideration of theranostic (therapeutics and diagnostic) applications, NIR cyanine fluorophores are synthesized for fluorescence imaging, photodynamic therapy (PDT), photothermal therapy (PTT), optoacoustic imaging, and cancer immunotherapy. One of the approaches before using these fluorophores in those applications is to study their biodistribution and clearance pattern in vivo. […] The power density of 150 W is much higher than the required power for fluorescence imaging, considering that the time it takes for a fluorophore to clear from the background and accumulate in sufficient quantities in the targeted tissues is unknown. […] By considering this, an aliquot of the stock solution (1 mM in DMSO) was diluted in ethanol, and the fluorescence intensity was measured at the excitation wavelength same as their absorption maxima (nm). Photodegradation rates were measured every 20 min intervals for the selected fluorophores based on the % reduced fluorescence intensity starting from 100%. […] The data were collected in every 20 min intervals under continuous irradiation with a xenon lamp at 150 W for 2 h and presented based on the % reduced fluorescence intensity starting from 100%. […]

For CCCCN1/C(=C/C=C2\CCCC(/C=C/C3=[N+](CCCC)c4ccc(Cl)cc4C3(C)C)=C2Cl)C(C)(C)c2cc(Cl)ccc21 [SH1, 1-butyl-2-((E)-2-((E)-3-(2-((E)-1-butyl-5-chloro-3,3-dimethylindolin-2-ylidene)ethylidene)-2-chlorocyclohex-1-en-1-yl)vinyl)-5-chloro-3,3-dimethyl-3H-indol-1-ium], the TBR ([1]; PDAC less than 5 mm in size, compared to healthy tissue) was about 9.5, the “onset of signals in the cancerous region” value ([1]; intravenous, until 24 h post-injection) was “did not appear at early time points” and the molar extinction coefficient ([2]; DMSO) was 203,000 cm^−1 M^−1. For the same compound, the molar extinction coefficient ([2]; EtOH) was 270,000 cm^−1 M^−1, the Stokes shift ([2]; HEPES) was 140 nm and the absorbance maximum ([2]; HEPES) was 661 nm. For the same compound, the emission wavelength ([2]; HEPES) was 802 nm, the molar extinction coefficient ([2]; HEPES) was 44,000 cm^−1 M^−1 and the molar extinction coefficient ([2]; PBS) was 41,000 cm^−1 M^−1. For the same compound, the “photodegradation (% reduced fluorescence intensity)” value [3] was “I-4”.
